The experiment has as its target Plk1 (Homo sapiens, UniProt P53350). In words: biochemical.
Chain of Plk1 (P53350 20-338): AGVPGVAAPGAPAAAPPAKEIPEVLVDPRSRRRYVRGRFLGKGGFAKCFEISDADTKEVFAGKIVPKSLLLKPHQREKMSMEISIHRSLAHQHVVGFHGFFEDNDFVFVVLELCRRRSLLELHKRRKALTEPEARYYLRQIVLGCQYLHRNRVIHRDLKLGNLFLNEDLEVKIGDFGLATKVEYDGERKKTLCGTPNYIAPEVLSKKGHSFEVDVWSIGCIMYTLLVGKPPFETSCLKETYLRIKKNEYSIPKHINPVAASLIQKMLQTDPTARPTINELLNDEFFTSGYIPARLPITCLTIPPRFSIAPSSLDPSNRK
The molecule `COc1cc(C(=O)O)ccc1Nc1ncc2c(n1)N(C1CCCC1)CCC(=O)N2C` [Compound I-1, 4-(9-Cyclopentyl-6,7,8,9-tetrahydro-5-methyl-6-oxo-5H-pyrimido[4,5-b][1,4]diazepin-2-ylamino)-3-methoxybenzoic acid] displayed an inhibitory constant (Ki) of 10 to 100 nM.

`CN1C(=O)CCN(C2CCCC2)c2nc(Nc3ccc(C(=O)O)cc3)ncc21` [Compound I-3, 4-(9-Cyclopentyl-6,7,8,9-tetrahydro-5-methyl-6-oxo-5H-pyrimido[4,5-b][1,4]diazepin-2-ylamino)-benzoic acid]: the Ki was 10 to 100 nM.

As for `COc1cc(C(=O)NC2CCN(C(=O)OC(C)(C)C)CC2)ccc1Nc1ncc2c(n1)N(C1CCCC1)CCC(=O)N2C` [Compound I-5, 4-(9-cyclopentyl-6,7,8,9-tetrahydro-5-methyl-6-oxo-5H-pyrimido[4,5-b][1,4]diazepin-2-ylamino)-3-methoxy-N-[1-(tert-butoxycarbonyl)piperidin-4-yl]benzamide], the Ki was less than 10 nM.

With `COc1cc(C(=O)NC2CCNCC2)ccc1Nc1ncc2c(n1)N(C1CCCC1)CCC(=O)N2C` [Compound I-6, 4-(9-cyclopentyl-6,7,8,9-tetrahydro-5-methyl-6-oxo-5H-pyrimido[4,5-b][1,4]diazepin-2-ylamino)-3-methoxy-N-(piperidin-4-yl)benzamide], the Ki was less than 10 nM.

In the case of `COc1cc(C(=O)N2CCN(C(=O)OC(C)(C)C)CC2)ccc1Nc1ncc2c(n1)N(C1CCCC1)CCC(=O)N2C` [Compound I-7, 4-(9-cyclopentyl-6,7,8,9-tetrahydro-5-methyl-6-oxo-5H-pyrimido[4,5-b][1,4]diazepin-2-ylamino)-3-methoxyphenyl-(4-tert-butoxycarbonypiperazin-1-yl)methanone], the inhibitory constant (Ki) is 10 to 100 nM.

Molecule `COc1cc(C(=O)N2CCNCC2)ccc1Nc1ncc2c(n1)N(C1CCCC1)CCC(=O)N2C` [Compound I-8, 4-(9-cyclopentyl-6,7,8,9-tetrahydro-5-methyl-6-oxo-5H-pyrimido[4,5-b][1,4]diazepin-2-ylamino)-3-methoxyphenyl(piperazin-1-yl)methanone] had a Ki of 10 to 100 nM.

The molecule `CNC(=O)c1ccc(Nc2ncc3c(n2)N(C2CCCC2)CCC(=O)N3C)c(OC)c1` [Compound I-9, 4-(9-cyclopentyl-6,7,8,9-tetrahydro-5-methyl-6-oxo-5H-pyrimido[4,5-b][1,4]diazepin-2-ylamino)-3-methoxy-N-methylbenzamide] gave a Ki of less than 10 nM.

In the case of `COc1cc(C(=O)O)ccc1Nc1ncc2c(n1)N(C1CCCC1)CC(C)C(=O)N2C` (stereo not shown) [Compound I-10, 4-(9-cyclopentyl-6,7,8,9-tetrahydro-5,7-dimethyl-6-oxo-5H-pyrimido[4,5-b][1,4]diazepin-2-ylamino)-3-methoxybenzoic acid], the Ki fell in the range of 10 to 100 nM.

`COCCNC(=O)c1ccc(Nc2ncc3c(n2)N(C2CCCC2)CCC(=O)N3C)c(OC)c1` [Compound I-11, 4-(9-cyclopentyl-6,7,8,9-tetrahydro-5-methyl-6-oxo-5H-pyrimido[4,5-b][1,4]diazepin-2-ylamino)-3-methoxy-N-(2-methoxyethyl)benzamide] returned a Ki of less than 10 nM.

As for `COc1cc(C(=O)NC2CCN(C)CC2)ccc1Nc1ncc2c(n1)N(C1CCCC1)CC(C)C(=O)N2C` (stereo not shown) [Compound I-12, 4-(9-cyclopentyl-6,7,8,9-tetrahydro-5,7-dimethyl-6-oxo-5H-pyrimido[4,5-b][1,4]diazepin-2-ylamino)-3-methoxy-N-(1-methylpiperidin-4-yl)benzamide], the Ki was less than 10 nM.

`COc1cc(C(=O)NC2CCN(C)CC2)ccc1Nc1ncc2c(n1)N(C)CCC(=O)N2C` [Compound I-14, 4-(6,7,8,9-tetrahydro-5,9-dimethyl-6-oxo-5H-pyrimido[4,5-b][1,4]diazepin-2-ylamino)-3-methoxy-N-(1-methylpiperidin-4-yl)benzamide] came in with an inhibition constant (Ki) of 10 to 100 nM.

Take `CNC(=O)c1ccc(Nc2ncc3c(n2)N(C2CCCC2)[C@@H]2CCC[C@@H]2C(=O)N3C)c(OC)c1` [Compound I-15, 4-((3aR,10aS)-4-cyclopentyl-9-methyl-10-oxo-1,2,3,3a,4,9,10,10a-octahydro-4,5,7,9-tetraaza-benzo[f]azulen-6-ylamino)-3-methoxy-N-methylbenzamide]: the Ki fell in the range of 10 to 100 nM.

In turn, `CNC(=O)c1ccc(Nc2ncc3c(n2)N(C2CCCC2)CC(C)(C)C(=O)N3C)c(OC)c1` [Compound I-16, 4-(9-cyclopentyl-6,7,8,9-tetrahydro-5,7,7-trimethyl-6-oxo-5H-pyrimido[4,5-b][1,4]diazepin-2-ylamino)-3-methoxy-N-methylbenzamide] returned a Ki of less than 10 nM.

The molecule `CNC(=O)c1ccc(Nc2ncc3c(n2)N(C2CCCC2)C[C@H](C)C(=O)N3C)c(OC)c1` [Compound I-17, 4-((S)-9-cyclopentyl-6,7,8,9-tetrahydro-5,7-dimethyl-6-oxo-5H-pyrimido[4,5-b][1,4]diazepin-2-ylamino)-3-methoxy-N-methylbenzamide] yielded an inhibition constant (Ki) of less than 10 nM.

`CNC(=O)c1ccc(Nc2ncc3c(n2)N(C2CCCC2)C[C@@H](C)C(=O)N3C)c(OC)c1` [Compound I-18, 4-((R)-9-cyclopentyl-6,7,8,9-tetrahydro-5,7-dimethyl-6-oxo-5H-pyrimido[4,5-b][1,4]diazepin-2-ylamino)-3-methoxy-N-methylbenzamide]: the Ki was less than 10 nM.

Molecule `CNC(=O)c1ccc(Nc2ncc3c(n2)N([C@@H]2CCNC2)CC(C)(C)C(=O)N3C)c(OC)c1` [Compound I-19, 4-(6,7,8,9-tetrahydro-5,7,7-trimethyl-6-oxo-9-((R)-pyrrolidin-3-yl)-5H-pyrimido[4,5-b][1,4]diazepin-2-ylamino)-3-methoxy-N-methylbenzamide] returned an inhibition constant Ki of 10 to 100 nM.

Consider `CNC(=O)c1ccc(Nc2ncc3c(n2)N([C@@H]2CCN(C)C2)CC(C)(C)C(=O)N3C)c(OC)c1` [Compound I-20, 4-(6,7,8,9-tetrahydro-5,7,7-trimethyl-9-((R)-1-methylpyrrolidin-3-yl)-6-oxo-5H-pyrimido[4,5-b][1,4]diazepin-2-ylamino)-3-methoxy-N-methylbenzamide], for which the inhibition constant Ki was 10 to 100 nM.

`COc1cc(C(=O)NC2CCN(C)CC2)ccc1Nc1ncc2c(n1)N(C1CCCC1)C[C@H](C)C(=O)N2C` [Compound I-21, 4-((S)-9-cyclopentyl-6,7,8,9-tetrahydro-5,7-dimethyl-6-oxo-5H-pyrimido[4,5-b][1,4]diazepin-2-ylamino)-3-methoxy-N-(1-methylpiperidin-4-yl)benzamide] gave a Ki of less than 10 nM.

On to `COc1cc(C(=O)NC2CCN(C)CC2)ccc1Nc1ncc2c(n1)N(C1CCCC1)C[C@@H](C)C(=O)N2C` [Compound I-22, 4-((R)-9-cyclopentyl-6,7,8,9-tetrahydro-5,7-dimethyl-6-oxo-5H-pyrimido[4,5-b][1,4]diazepin-2-ylamino)-3-methoxy-N-(1-methylpiperidin-4-yl)benzamide], for which the Ki was less than 10 nM.

Molecule `COc1cc(C(=O)NC2CCN(C)CC2)ccc1Nc1ncc2c(n1)N(C1CCCC1)CC(C)(C)C(=O)N2C` [Compound I-23, 4-(9-cyclopentyl-6,7,8,9-tetrahydro-5,7,7-trimethyl-6-oxo-5H-pyrimido[4,5-b][1,4]diazepin-2-ylamino)-3-methoxy-N-(1-methylpiperidin-4-yl)benzamide] yielded a Ki of less than 10 nM.

In turn, `COc1cc(C(=O)Nc2ccncc2)ccc1Nc1ncc2c(n1)N(C1CCCC1)CC(C)(C)C(=O)N2C` [Compound I-24, 4-(9-cyclopentyl-6,7,8,9-tetrahydro-5,7,7-trimethyl-6-oxo-5H-pyrimido[4,5-b][1,4]diazepin-2-ylamino)-3-methoxy-N-(pyridin-4-yl)benzamide] gave an inhibition constant (Ki) of less than 10 nM.

As to `COc1cc(C(=O)NC2CN(C)C2)ccc1Nc1ncc2c(n1)N(C1CCCC1)CC(C)(C)C(=O)N2C` [Compound I-25, 4-(9-cyclopentyl-6,7,8,9-tetrahydro-5,7,7-trimethyl-6-oxo-5H-pyrimido[4,5-b][1,4]diazepin-2-ylamino)-3-methoxy-N-(1-methylazetidin-3-yl)benzamide], the Ki was less than 10 nM.

`COc1cc(C(=O)N[C@@H]2CCN(C)C2)ccc1Nc1ncc2c(n1)N(C1CCCC1)CC(C)(C)C(=O)N2C` [Compound I-26, 4-(9-cyclopentyl-6,7,8,9-tetrahydro-5,7,7-trimethyl-6-oxo-5H-pyrimido[4,5-b][1,4]diazepin-2-ylamino)-3-methoxy-N—((R)-1-methylpyrrolidin-3-yl)benzamide] registered a Ki of less than 10 nM.

Take `COc1cc(C(=O)NCCc2cncn2C)ccc1Nc1ncc2c(n1)N(C1CCCC1)CC(C)(C)C(=O)N2C` [Compound I-27, 4-(9-cyclopentyl-6,7,8,9-tetrahydro-5,7,7-trimethyl-6-oxo-5H-pyrimido[4,5-b][1,4]diazepin-2-ylamino)-3-methoxy-N-(2-(1-methyl-1H-imidazo-5-yl)ethyl)benzamide]: the Ki was less than 10 nM.

Molecule `COc1cc(C(=O)NCCCN2CCN(C)CC2)ccc1Nc1ncc2c(n1)N(C1CCCC1)CC(C)(C)C(=O)N2C` [Compound I-28, 4-(9-cyclopentyl-6,7,8,9-tetrahydro-5,7,7-trimethyl-6-oxo-5H-pyrimido[4,5-b][1,4]diazepin-2-ylamino)-3-methoxy-N-(3-(4-methylpiperazin-1-yl)propyl)benzamide] gave a Ki of less than 10 nM.

For the molecule `CNC(=O)c1ccc(Nc2ncc3c(n2)N(C2CC2)CC(C)(C)C(=O)N3C)c(OC)c1` [Compound I-30, 4-(9-cyclopropyl-6,7,8,9-tetrahydro-5,7,7-trimethyl-6-oxo-5H-pyrimido[4,5-b][1,4]diazepin-2-ylamino)-3-methoxy-N-methylbenzamide], the Ki was 10 to 100 nM.

For the molecule `COc1cc(C(=O)NCCc2cn(C)cn2)ccc1Nc1ncc2c(n1)N(C1CCCC1)CC(C)(C)C(=O)N2C` [Compound I-31, 4-(9-cyclopentyl-6,7,8,9-tetrahydro-5,7,7-trimethyl-6-oxo-5H-pyrimido[4,5-b][1,4]diazepin-2-ylamino)-3-methoxy-N-(2-(1-methyl-1H-imidazo-4-yl)ethyl)benzamide], the Ki was less than 10 nM.

Turning to `COc1cc(C(=O)N2CC[C@H](F)C2)ccc1Nc1ncc2c(n1)N(C1CCCC1)CC(C)(C)C(=O)N2C` [Compound I-32, 9-Cyclopentyl-2-[4-((S)-3-fluoro-pyrrolidine-1-carbonyl)-2-methoxyphenylamino]-5,7,7-trimethyl-5,7,8,9-tetrahydropyrimido[4,5-b][1,4]diazepin-6-one], the Ki is less than 10 nM.

For the origin of these results see patent publication US8394952B2 (Vertex Pharmaceuticals Incorporated, priority 2006, dated 2013).
